Molecular target: DevR (also known as DosR or Rv3133c) dimerization (Mycobacterium tuberculosis, UniProt P9WMF9)
Test: M-PFC Alamar Blue screen for inhibitors of DevR dimerization
Type: cell-based
Conditions: for effect on DevR dimerization: M-PFC Alamar Blue assay in Msm, titration (FIG. 11); for concentration with the most dramatic effect on DevR dimerization: titration curves, FIG. 11

Chain of DevR (also known as DosR or Rv3133c) dimerization (P9WMF9 whole entry, looked up): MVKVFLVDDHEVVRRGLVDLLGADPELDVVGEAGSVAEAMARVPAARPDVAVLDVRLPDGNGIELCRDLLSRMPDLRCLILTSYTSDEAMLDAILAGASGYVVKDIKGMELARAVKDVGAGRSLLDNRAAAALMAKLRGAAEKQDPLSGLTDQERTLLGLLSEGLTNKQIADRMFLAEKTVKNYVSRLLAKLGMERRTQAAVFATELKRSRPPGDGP

Row | SMILES | effect on DevR dimerization | concentration with the most dramatic effect on DevR dimerization [µg/mL]
1 | Cl.Cn1c(=N)n(CC(=O)c2cc(C(C)(C)C)c(O)c(C(C)(C)C)c2)c2ccccc21 [1-(3,5-di-tert-butyl-4-hydroxyphenyl)-2-(2-imino-3-methyl-2,3-dihydro-1H-benzimidazol-1-yl)ethanone hydrochloride] | inhibitory effect against DevR dimerization at low concentrations | 12.5
2 | CC(=O)NS(=O)(=O)c1ccc(NC(=O)CCc2ccccc2)cc1 [N-(4-[(acetylamino)sulfonyl]phenyl)-3-phenylpropanamide] | inhibitory effect against DevR dimerization at low concentrations | 12.5
